{
  "source": "patent US7700644B2",
  "about": "“Isoflavonoid dimers” (Novogen Research Pty Ltd, priority 2005, dated 2010)",
  "key": {"TXB2": {"test_system": "TXB2", "experiment": "TXB2 in murine macrophages (RAW 264.7) stimulated with LPS", "type": "cell-based, mouse", "details": "RAW 264.7, LPS 50 ng/ml, 16 hrs, dose responsive", "protocol": "The mouse macrophage cell line RAW 264.7 was cultured in DMEM supplemented with FCS, 2 mM glutamine and 50 U/ml penicillin/streptomycin. Subconfluent cells were detached from the flask by gentle scraping and 24-well plates seeded at 5×10^5 cells per well and allowed to adhere for 1 hr. Cells were then treated either test compounds (in 0.025% DMSO) or vehicle alone, and incubated for 1 hr. LPS 50 ng/ml (LPS —Sigma-Aldrich) was then added. After incubation for 16 hrs, culture media was collected and stored at −80° C. for ecosanoid and cytokine measurements using enzyme immunometric assays (PGE2 and TXB2—Cayman Chemical and TNFα—Becton Dickinson)."}, "HT-29 (Colorectal)": {"test_system": "HT-29 (Colorectal)", "experiment": "In vitro cytotoxicity, MTT proliferation assay, HT-29", "type": "cell-based, human", "details": "Homo sapiens; Colorectal HT-29", "protocol": "The human pancreatic cancer cell line, HPAC (CRL-2119) was routinely cultured in 1:1 mixture DMEM (Sigma) plus Ham's F12 (Sigma) medium containing HEPES (15 mM), insulin (0.002 mg/ml), transferrin (0.005 mg/ml), hydrocortisone, (40 ng/ml), epidermal growth factor (10 ng/ml). The ovarian cancer cell line CP70 was obtained as a gift from Dr. Gil Mor (Yale University) and cultured in a 1:1 mixture DMEM plus Ham's F12 medium, and SKOV-3 was purchased from ATCC and cultured in McCoy's 5a medium. The breast cancer cell line MDA-MB-468 cultured in Leibovitz's L-15 medium.\nAll cultures were supplemented with 10% FCS(CSL, Australia), penicillin (100 U/ml), streptomycin ([…]), L-glutamine (2 mM) and sodium bicarbonate (1.2 g/L), and cultured at 37° C. in a humidified atmosphere of 5% CO2. All remaining cell lines were purchased from ATCC (Maryland, USA) except where noted.\nIC50 values were determined for each cell line. Cells were seeded in 96-well plates at an appropriate cell density as determined from growth kinetics analysis. NFFs were cultured for 5 days and RK-13s for 24 hrs in the absence and presence of the test compounds. Cell proliferation was assessed after the addition of 20 μl of 3-4,5 dimethylthiazol-2,5-diphenyl tetrazolium bromide (MTT, 2.5 mg/ml in PBS, Sigma) for 3-4 hrs at 37° C. according to manufacturer's instructions. IC50 values were calculated from semi-log plots of % of control proliferation on the y-axis against log dose on the x-axis."}, "HT-29 (Colorectal) cells": {"test_system": "HT-29 (Colorectal) cells", "experiment": "Chemosensitisation, combination with antineoplastic agent, HT-29", "type": "cell-based, human", "details": "for synergy with Paclitaxel: Cpd. 2 1 μM and 2 μM", "protocol": "The utility of the dimeric compounds of the invention to act as a chemosensitiser when used in combination with an array of standard chemotherapeutic agents was assessed. Dimeric Cpd. 2 was applied to various colorectal and pancreatic cancer cell lines to investigate its synergy with standard chemotherapeutic agents including cisplatin, gemcitabine, paclitaxel, doxorubicin, camptothecin and topotecan.\nThe experiment as outlined in SOP-BD011 (Versions A and B) was used to screen three antineoplastic agents against a given cell line in any ‘one’ experiment (see for example Kanzawa et al., (1997)). The inherent design of the experiment allowed for three sequences of Cpd. 2 and an antineoplastic agent. • 1) Direct Sequence—Cells are treated with both Cpd. 2 and a single antineoplastic agent (combined) for 5 days. • 2) Cpd. 2 First (Forward) Sequence—Cells are treated for 24 hours with Cpd. 2 before replacing with a 24 hour antineoplastic agent treatment; drugs are then washed out and processed on Day 5. • 3) Reverse Sequence—The reverse order to experiment No. 2 above. i.e. a cytotoxin first sequence Results and Conclusions\nAll data was evaluated using the formulae of theoretic additivity incorporated into a three dimensional model, as described by Kanzawa et al. (1997). This allows for simple data interpretation as values in excess of 10% are defined as ‘synergistic’ (depicted in grey) whilst those below −10% are defined as ‘antagonistic’ (depicted in black)."}},
  "data": [
    {"smiles": "COc1ccc(C23COc4c(ccc(O)c4C)C2C2c4ccc(O)c(C)c4OCC2c2cc(OC)c(OC)cc23)cc1OC", "note": "(stereo not shown) [Cpd. 2, 4,9-Dihydroxy-14,15-dimethoxy-12a-(3′,4′-dimethoxyphenyl)-3,10-dimethyl-2,11-dioxa-(1H,12H)-6b,6c,12a,16b-tetrahydronaphtho[1,2-g]chrysene]", "values": [
      {"measurement": "effect on TXB2", "setting": "TXB2", "result": "inhibited"},
      {"measurement": "IC50", "setting": "HT-29 (Colorectal)", "result": "11.5 ± 6", "unit": "µM"},
      {"measurement": "synergy with Doxorubicin", "setting": "HT-29 (Colorectal) cells; Doxorubicin first (C)", "result": "no synergy"},
      {"measurement": "synergy with Doxorubicin", "setting": "HT-29 (Colorectal) cells; combination (A) and forward (B) sequences", "result": "strong synergistic cytotoxicity"},
      {"measurement": "synergy with Paclitaxel", "setting": "HT-29 (Colorectal) cells; combination (A)", "result": "strong synergy"},
      {"measurement": "synergy with Gemcitabine", "setting": "HT-29 (Colorectal) cells; forward (A) and reverse (B) sequences, Cpd. 2 5 μM and 10 μM", "result": "synergistic cytotoxicity"},
      {"measurement": "synergy with Paclitaxel", "setting": "HT-29 (Colorectal) cells; forward (B) and reverse (C) 24 hour sequences", "result": "Less significant regions of synergy"}
    ]}
  ]
}
